The nature of one data set: Solubility test. As to conditions: kinetic from dmso stock.
For a further data set, the system named is AMPK phosphorylation. As to the kind of experiment: AMPK phosphorylation activity in mouse adipocytes (Western blot). It counts as cell-based. To be noted: 3T3-L1, 10 μM, 24 hours; for AMPK phosphorylation activity (fold change): APN5 = 1.0. On the procedure: There were confirmed effects of the peptide derivatives of the present disclosure on the expression and receptor activity of adiponectin in mouse adipocytes as a main adiponectin production site. A mouse adipocyte cell line 3T3-L1 was treated with each of the peptide derivatives of the present disclosure at a concentration of 10 μM and cultured for 24 hours, and then cells were obtained. Thereafter, the proteins were extracted and the effect on AMPK phosphorylation, which was responsible for the main downstream signaling of adiponectin, was confirmed by Western blot.
On the technique in general: In western blotting, separated proteins are transferred to a membrane and probed.

In another data set the target is T1, adiponectin receptor 1 (Mus musculus, UniProt Q91VH1).
T1 construct: a mouse adipocyte cell line 3T3-L1 was treated with siRNA of an adiponectin receptor 1 to be knocked down; endogenous in cells; host or cells: 3T3-L1 mouse adipocyte cell line
T1 sequence (Q91VH1 1-375): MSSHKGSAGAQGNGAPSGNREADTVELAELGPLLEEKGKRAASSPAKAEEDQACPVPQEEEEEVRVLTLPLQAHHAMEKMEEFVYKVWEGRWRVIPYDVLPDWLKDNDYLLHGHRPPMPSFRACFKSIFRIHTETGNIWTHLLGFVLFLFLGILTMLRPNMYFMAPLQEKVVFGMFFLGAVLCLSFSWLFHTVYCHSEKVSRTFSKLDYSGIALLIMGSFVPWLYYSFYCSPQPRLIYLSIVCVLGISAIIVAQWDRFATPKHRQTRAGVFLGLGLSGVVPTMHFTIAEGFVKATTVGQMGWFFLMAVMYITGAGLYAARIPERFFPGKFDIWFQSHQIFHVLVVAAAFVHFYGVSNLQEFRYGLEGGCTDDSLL
In words: AMPK phosphorylation activity after knockdown of adiponectin receptor 1 (siRNA, Western blot). It counts as cell-based. To be noted: 3T3-L1, adiponectin receptor 1 siRNA, 10 μM, 24 hours. On the procedure:
In order to verify whether the peptide derivative of the present disclosure bound to an adiponectin receptor 1, a mouse adipocyte cell line 3T3-L1 was treated with siRNA of an adiponectin receptor 1 to be knocked down, and each of the peptide derivatives of the present disclosure was treated at 10 μM and cultured for 24 hours, and then cells were obtained. Thereafter, the proteins were extracted and it was confirmed by Western blot whether AMPK phosphorylation activity, which had been increased by the peptide derivatives, was lost.

The nature of data set [1]: Plasma stability test, rat plasma. As to conditions: for remaining at 0.5 h, 1 μM / remaining at 2 h, 1 μM: rat, plasma.
Data set [2] is described as follows: Metabolic stability test, rat liver microsomes. The format is in vitro ADME. As to conditions: NADPH, 37° C.; for remaining at 0.5 h, 1 μM: pH 7.4, rat liver microsomes 0.5 mg/ml, 30 m.
A short description of data set [3]: Metabolic stability test, mouse liver microsomes. It counts as in vitro ADME. To be noted: NADPH, 37° C.; for remaining at 0.5 h, 1 μM: pH 7.4, mouse liver microsomes 0.5 mg/ml, 30 m. A general note: Liver microsomes are a subcellular fraction often used to study metabolism.
Data set [4] is described as follows: in vitro. To be noted: human, plasma.
Data set [5] in a line: in vitro. As to conditions: human, microsomes, pH 7.4.
For the next data set, the target named is CYP2C9 (Homo sapiens, UniProt P11712). To be noted: microsomes, 10 µM. On the procedure: (§1) Metabolites of each CYP isoenzyme indicator drug produced through the reaction were analyzed by LC-MS/MS using the Shimadzu Nexera XR system and TSQ vantage (Thermo).
CYP2C9, sequence (P11712 whole entry): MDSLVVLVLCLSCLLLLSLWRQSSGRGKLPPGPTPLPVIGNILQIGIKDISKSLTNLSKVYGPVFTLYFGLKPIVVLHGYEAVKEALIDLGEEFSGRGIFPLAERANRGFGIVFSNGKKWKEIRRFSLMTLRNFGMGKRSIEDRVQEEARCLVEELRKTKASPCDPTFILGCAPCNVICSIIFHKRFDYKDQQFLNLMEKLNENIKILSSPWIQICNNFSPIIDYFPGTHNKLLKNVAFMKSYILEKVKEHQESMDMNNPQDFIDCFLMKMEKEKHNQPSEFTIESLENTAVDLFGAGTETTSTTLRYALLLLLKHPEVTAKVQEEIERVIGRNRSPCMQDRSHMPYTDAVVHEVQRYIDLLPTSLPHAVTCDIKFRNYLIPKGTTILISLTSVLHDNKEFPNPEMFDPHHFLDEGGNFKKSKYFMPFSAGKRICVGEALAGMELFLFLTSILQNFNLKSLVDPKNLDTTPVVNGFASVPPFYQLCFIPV
A further data set deals with T2, CYP1A2 (Homo sapiens, UniProt P05177).
T2 sequence (P05177 1-516): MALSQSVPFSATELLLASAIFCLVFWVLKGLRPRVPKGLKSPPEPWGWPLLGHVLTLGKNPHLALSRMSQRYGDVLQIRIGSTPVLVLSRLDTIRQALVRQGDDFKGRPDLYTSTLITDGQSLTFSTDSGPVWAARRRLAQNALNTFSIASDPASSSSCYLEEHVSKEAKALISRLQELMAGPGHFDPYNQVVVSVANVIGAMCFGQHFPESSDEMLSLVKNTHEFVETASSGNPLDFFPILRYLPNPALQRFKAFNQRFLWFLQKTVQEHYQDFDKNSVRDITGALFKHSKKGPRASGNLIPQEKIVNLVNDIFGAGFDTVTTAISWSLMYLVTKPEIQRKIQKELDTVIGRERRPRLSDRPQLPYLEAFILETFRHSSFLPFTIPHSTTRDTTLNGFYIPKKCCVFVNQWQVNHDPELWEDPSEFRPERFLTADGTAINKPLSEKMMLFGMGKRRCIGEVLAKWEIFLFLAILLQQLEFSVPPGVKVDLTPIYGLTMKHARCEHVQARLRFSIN
As to conditions: microsomes, 10 µM. On the procedure: as §1

The next data set deals with CYP2C19 (Homo sapiens, UniProt P33261). To be noted: microsomes, 10 µM. Here is the method:
as §1

The target of another data set is CYP3A4 (Homo sapiens, UniProt P08684). To be noted: microsomes, 10 µM. Here is the method: as §1
CYP3A4, sequence (P08684 whole entry): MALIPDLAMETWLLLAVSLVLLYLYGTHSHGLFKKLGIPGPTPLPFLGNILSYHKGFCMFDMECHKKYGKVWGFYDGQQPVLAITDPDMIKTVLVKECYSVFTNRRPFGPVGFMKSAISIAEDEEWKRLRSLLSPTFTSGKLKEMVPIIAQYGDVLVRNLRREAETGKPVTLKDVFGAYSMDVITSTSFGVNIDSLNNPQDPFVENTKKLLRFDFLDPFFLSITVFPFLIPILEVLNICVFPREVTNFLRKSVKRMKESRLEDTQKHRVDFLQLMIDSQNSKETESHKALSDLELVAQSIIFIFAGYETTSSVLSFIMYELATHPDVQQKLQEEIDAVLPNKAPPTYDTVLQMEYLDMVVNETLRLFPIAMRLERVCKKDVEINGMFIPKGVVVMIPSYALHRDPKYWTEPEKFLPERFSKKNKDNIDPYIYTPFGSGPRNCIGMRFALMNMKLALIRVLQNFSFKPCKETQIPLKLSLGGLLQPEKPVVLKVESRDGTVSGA
The target of another data set is CYP2D6 (Homo sapiens, UniProt P10635). As to conditions: microsomes, 10 µM. Here is the method:
as §1

Data set [6] can be described thus: Plasma stability test, human plasma.
The nature of data set [7]: Metabolic stability test, human liver microsomes.
A further data set in a line: physchem. To be noted: pH 7.4, aqueous buffer, kinetic from dmso stock.
The mark [8] stands for this setting: PRISMA HT buffer, pH 7.4, aqueous buffer.

≈ marks a conversion by molar mass, not a printed value. Square brackets hold non-standard residues; d marks the D form. Peptide text beside a SMILES is read from it. Phe(4-Cl) = N[CH](Cc1ccc(Cl)cc1)C(=O)O; Phe(4-F) = N[CH](Cc1ccc(F)cc1)C(=O)O

CYP2D6, sequence (P10635 whole entry): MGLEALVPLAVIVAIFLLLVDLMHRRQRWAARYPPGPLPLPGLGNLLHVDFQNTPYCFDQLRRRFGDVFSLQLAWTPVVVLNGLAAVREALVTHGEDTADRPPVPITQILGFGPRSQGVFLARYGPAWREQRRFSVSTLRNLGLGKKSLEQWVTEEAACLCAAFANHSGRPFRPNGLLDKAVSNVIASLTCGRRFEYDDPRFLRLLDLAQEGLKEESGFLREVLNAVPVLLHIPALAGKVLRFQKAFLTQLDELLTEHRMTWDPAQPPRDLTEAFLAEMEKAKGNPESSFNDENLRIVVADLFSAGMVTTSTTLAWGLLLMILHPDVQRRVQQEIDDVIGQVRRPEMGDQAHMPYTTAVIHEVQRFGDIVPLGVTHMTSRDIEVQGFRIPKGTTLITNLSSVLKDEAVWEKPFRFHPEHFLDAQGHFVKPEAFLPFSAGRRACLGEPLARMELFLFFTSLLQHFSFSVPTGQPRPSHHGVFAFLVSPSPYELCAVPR
CYP2C19, sequence (P33261 whole entry): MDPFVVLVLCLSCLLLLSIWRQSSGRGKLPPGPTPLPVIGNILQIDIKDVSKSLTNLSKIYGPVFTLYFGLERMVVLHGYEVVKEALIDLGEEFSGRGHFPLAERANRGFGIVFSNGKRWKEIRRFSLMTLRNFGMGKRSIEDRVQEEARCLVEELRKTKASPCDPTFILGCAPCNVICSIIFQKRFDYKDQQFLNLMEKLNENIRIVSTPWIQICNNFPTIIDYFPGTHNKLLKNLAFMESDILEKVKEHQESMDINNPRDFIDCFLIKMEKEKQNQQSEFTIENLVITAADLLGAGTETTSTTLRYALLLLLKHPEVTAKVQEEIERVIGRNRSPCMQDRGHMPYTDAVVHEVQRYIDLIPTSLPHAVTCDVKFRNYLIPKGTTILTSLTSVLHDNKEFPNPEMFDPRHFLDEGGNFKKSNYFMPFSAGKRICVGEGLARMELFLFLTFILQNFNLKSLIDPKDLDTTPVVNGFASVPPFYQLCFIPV

In the case of `Nc1ccc(/N=N/c2ccccc2)c(N)n1` [Phenazopyridine], the kinetic solubility (commonly the concentration staying in solution when a stock, usually in DMSO, is diluted into the medium) at 24 h in the data set “Solubility test” (setting [8]) was 23.8 µg/mL (≈ 111 µM).

Turning to `CC(C)CC(NC(=O)CN)C(=O)NC(Cc1ccc(Cl)cc1)C(=O)NC(Cc1ccc(O)cc1)C(=O)NC(Cc1ccccc1)C(N)=O` (centres unmarked) [DS-52, NH2-GLF(4-C1)YF-NH2] (H-GL[Phe(4-Cl)]YF-NH2; configuration not given here), in the data set on AMPK phosphorylation, the “AMPK phosphorylation activity (fold change)” value is reported as 1.2 fold change and the “AMPK phosphorylation activity compared to APN5 (in words)” value is “significant effect of increasing AMPK phosphorylation activity”. Moreover, the “AMPK phosphorylation activity after knockdown of the adiponectin receptor 1” value at adiponectin receptor 1 is “decreased the AMPK phosphorylation activity after knockdown of the adiponectin receptor 1”.

For `CCC(C)C(NC(=O)CN)C(=O)NC(Cc1c[nH]c2ccccc12)C(=O)NC(Cc1ccc(O)cc1)C(=O)NC(Cc1ccccc1)C(N)=O` (centres unmarked) [DS-18, NH2-GIWYF-NH2] (H-GIWYF-NH2; configuration not given here), in the data set on AMPK phosphorylation, the “AMPK phosphorylation activity (fold change)” value was found to be 1.2 fold change and the “AMPK phosphorylation activity compared to APN5 (in words)” value is “significant effect of increasing AMPK phosphorylation activity”. The “AMPK phosphorylation activity after knockdown of the adiponectin receptor 1” value at adiponectin receptor 1 was “decreased the AMPK phosphorylation activity after knockdown of the adiponectin receptor 1”.

On to `O=C(O)Cc1ccccc1Nc1c(Cl)cccc1Cl` [Diclofenac], for which the solubility (kinetic) at 24 h in “Solubility test” (setting [8]) was found to be 157 µg/mL (≈ 530 µM).

Regarding `CC(C)C[C@H](NC(=O)CN)C(=O)N[C@@H](Cc1ccc(O)cc1)C(=O)N[C@@H](Cc1ccc(O)cc1)C(=O)N[C@@H](Cc1ccccc1)C(=O)O` [APN5, NH2-GLYYF-OH, reference compound], the share remaining (commonly what is left of the initial amount, in per cent) at 0.5 h, 1 μM in data set [1] was 83.1%; in data set [2], 1.3%; in data set [3] it was 9.5%; in the data set “in vitro [4]” it was less than 1%; in “in vitro [5]” it was 1.7%. Moreover, the fraction remaining at 2 h, 1 μM was 70.5% in data set [1] and less than 1% in “in vitro [4]”. The “AMPK phosphorylation activity (fold change)” value in the data set with AMPK phosphorylation was determined as 1.0 fold change. Moreover, the kinetic solubility at 24 h in the data set “Solubility test” (setting [8]) was 8.2 µg/mL (≈ 12.4 µM). Further, on CYP2C9, the “CYP inhibition (% of control activity) CYP2C9” value is reported as >100 % of control activity. The “CYP inhibition (% of control activity) CYP1A2” value on CYP1A2 is listed as 88.8 % of control activity. Moreover, the “CYP inhibition (% of control activity) CYP2C19” value on CYP2C19 was 98.5 % of control activity. Moreover, the “CYP inhibition (% of control activity) CYP3A4” value on CYP3A4 is on record as 82.9 % of control activity. Further, the “CYP inhibition (% of control activity) CYP2D6” value at CYP2D6 was 92.3 % of control activity.

With `Cc1cc(CC(NC(=O)C(CC(=O)O)NC(=O)CN)C(=O)NC(Cc2ccc(O)cc2)C(=O)NC(Cc2ccccc2)C(N)=O)cc(C)c1O` (centres unmarked) [DS-41, NH2-GDY(Dmt)YF-NH2], the amount remaining at 0.5 h, 1 μM in data set [1] is more than 100%; in [2] it was 75.1%; in data set [3], 95.2%; in data set [6] (human, plasma), less than 1%; in data set [7] (human, microsomes, pH 7.4), 95.8%. In addition, the amount remaining at 2 h, 1 μM in data set [1] was 99.6%; in [6] (human, plasma), less than 1%.

For `CC(C)CC(NC(=O)CN)C(=O)NC(Cc1c[nH]c2ccccc12)C(=O)NC(Cc1ccc(O)cc1)C(=O)NC(Cc1ccccc1)C(N)=O` (centres unmarked) [DS-17, NH2-GLWYF-NH2] (H-GLWYF-NH2; configuration not given here), in the data set with AMPK phosphorylation, the “AMPK phosphorylation activity (fold change)” value came to 1.2 fold change and the “AMPK phosphorylation activity compared to APN5 (in words)” value is on record as “significant effect of increasing AMPK phosphorylation activity”. The “AMPK phosphorylation activity after knockdown of the adiponectin receptor 1” value on adiponectin receptor 1 is “decreased the AMPK phosphorylation activity after knockdown of the adiponectin receptor 1”.

`CC(C)CC(NC(=O)CN)C(=O)NC(Cc1ccc(F)cc1)C(=O)NC(Cc1ccc(O)cc1)C(=O)NC(Cc1ccccc1)C(N)=O` (centres unmarked) [DS-51, NH2-GLF(4-F)YF-NH2] (H-GL[Phe(4-F)]YF-NH2; configuration not given here): in the data set on AMPK phosphorylation, the “AMPK phosphorylation activity (fold change)” value is recorded as 1.3 fold change and the “AMPK phosphorylation activity compared to APN5 (in words)” value was “significant effect of increasing AMPK phosphorylation activity”. Besides, the solubility (as a rule, how much of the substance goes into solution per volume) at 24 h in the data set “physchem” came out at 136 µg/mL (≈ 204 µM). The “AMPK phosphorylation activity after knockdown of the adiponectin receptor 1” value at adiponectin receptor 1 is given as “decreased the AMPK phosphorylation activity after knockdown of the adiponectin receptor 1”.

In the case of `O=C(COc1ccc(C(=O)c2ccccc2)cc1)NC1CCN(Cc2ccccc2)CC1` [DS-43, adiporon, reference compound], the “Plasma stability (% remaining) Rat, 30 m” value in data set [1] (rat plasma, 1 μM, 37° C., 30 m) was more than 100 % remaining. Also, the “Plasma stability (% remaining) Rat, 120 m” value in [1] (rat plasma, 1 μM, 37° C., 120 m) is given as more than 100 % remaining. The “Metabolic stability (% remaining) Rat, 30 m” value in [2] (rat liver microsomes 0.5 mg/ml, 1 μM) worked out at 2.3 % remaining. In [3] (mouse liver microsomes 0.5 mg/ml, 1 μM), the “Metabolic stability (% remaining) Mouse, 30 m” value is recorded as 3.1 % remaining. Also, the “Plasma stability (% remaining) Human, 30 m” value in data set [6] (human plasma, 1 μM, 37° C., 30 m) was more than 100 % remaining. The “Plasma stability (% remaining) Human, 120 m” value in data set [6] (human plasma, 1 μM, 37° C., 120 m) is on record as more than 100 % remaining. Moreover, the “Metabolic stability (% remaining) Human, 30 m” value in [7] (human liver microsomes 0.5 mg/ml, 1 μM, NADPH, 37° C., 30 m) stood at 54.9 % remaining. In the data set “Solubility test” (PRISMA HT buffer (diluted 1:40 in distilled water), pH 7.4, pH 7.4, aqueous buffer), this compound yielded a kinetic solubility at 24 h of 43.7 µg/mL (≈ 102 µM). Further, the “CYP inhibition (% of control activity) CYP2C19” value at CYP2C19 is 66.0 % of control activity. For the same compound, the “CYP inhibition (% of control activity) CYP3A4” value on CYP3A4 was 90.3 % of control activity. Also, the “CYP inhibition (% of control activity) CYP2D6” value on CYP2D6 is 30.3 % of control activity.

The values are drawn from patent US20250049891A1, “NOVEL PEPTIDE DERIVATIVE DERIVED FROM ADIPONECTIN AND USE THEREOF” (SEOUL NATIONAL UNIVERSITY HOSPITAL, priority 2021, published 2025).
